From ChEMBL document CHEMBL4321836, “Discovery of BAY-298 and BAY-899: Tetrahydro-1,6-naphthyridine-Based, Potent, and Selective Antagonists of the Luteinizing Hormone Receptor Which Reduce Sex Hormone Levels in Vivo” (J Med Chem, 2019)
Activity calls are given as the source filed them. The calls are words filed in the database; no cut-off is given here.

Assays:
[1] = Clearance in human liver microsomes at 1 uM measured after 2 to 60 mins in presence of glucose-6-phosphate by LC-MS/MS analysis; assay type: ADME, Microsome
[2] = molecular target: Lutropin-choriogonadotropic hormone receptor (Mus musculus, UniProt P30730); test: Antagonist activity at luteinizing hormone receptor in mouse MLTC-1 cells assessed as reduction in agonist-induced cAMP production preincubated for 30 mins followed by agonist solution addition and measured after 30 mins by cell based TR-FRET assay; assay type: functional
Chain of Lutropin-choriogonadotropic hormone receptor (Mus musculus, UniProt P30730) (P30730 whole entry): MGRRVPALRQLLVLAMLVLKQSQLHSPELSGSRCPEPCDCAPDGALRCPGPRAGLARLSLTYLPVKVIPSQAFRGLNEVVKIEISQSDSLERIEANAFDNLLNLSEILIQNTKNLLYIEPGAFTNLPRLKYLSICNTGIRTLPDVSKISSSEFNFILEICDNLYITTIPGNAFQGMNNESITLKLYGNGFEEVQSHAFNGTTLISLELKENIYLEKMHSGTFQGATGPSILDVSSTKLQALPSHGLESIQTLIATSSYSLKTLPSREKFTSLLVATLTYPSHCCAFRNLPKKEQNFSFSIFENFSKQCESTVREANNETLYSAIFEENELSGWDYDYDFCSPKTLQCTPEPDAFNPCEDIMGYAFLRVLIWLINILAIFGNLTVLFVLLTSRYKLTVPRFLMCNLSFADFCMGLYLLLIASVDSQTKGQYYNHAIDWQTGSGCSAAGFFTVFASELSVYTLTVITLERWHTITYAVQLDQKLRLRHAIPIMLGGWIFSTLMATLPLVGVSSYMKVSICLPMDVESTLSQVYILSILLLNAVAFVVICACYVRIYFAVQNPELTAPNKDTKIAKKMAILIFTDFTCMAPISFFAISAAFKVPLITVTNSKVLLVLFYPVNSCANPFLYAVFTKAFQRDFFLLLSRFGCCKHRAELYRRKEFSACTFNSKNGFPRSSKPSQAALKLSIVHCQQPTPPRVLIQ

[3] = molecular target: Relaxin receptor 1 (Homo sapiens) (UniProt Q9HBX9); test: Antagonist activity at human RXFP1 assessed as reduction in agonist-induced cAMP production preincubated for 20 mins followed by mutRelaxin agonist addition measured after 60 mins by cell based TR-FRET assay; assay type: functional
Chain of Relaxin receptor 1 (Homo sapiens) (Q9HBX9 whole entry): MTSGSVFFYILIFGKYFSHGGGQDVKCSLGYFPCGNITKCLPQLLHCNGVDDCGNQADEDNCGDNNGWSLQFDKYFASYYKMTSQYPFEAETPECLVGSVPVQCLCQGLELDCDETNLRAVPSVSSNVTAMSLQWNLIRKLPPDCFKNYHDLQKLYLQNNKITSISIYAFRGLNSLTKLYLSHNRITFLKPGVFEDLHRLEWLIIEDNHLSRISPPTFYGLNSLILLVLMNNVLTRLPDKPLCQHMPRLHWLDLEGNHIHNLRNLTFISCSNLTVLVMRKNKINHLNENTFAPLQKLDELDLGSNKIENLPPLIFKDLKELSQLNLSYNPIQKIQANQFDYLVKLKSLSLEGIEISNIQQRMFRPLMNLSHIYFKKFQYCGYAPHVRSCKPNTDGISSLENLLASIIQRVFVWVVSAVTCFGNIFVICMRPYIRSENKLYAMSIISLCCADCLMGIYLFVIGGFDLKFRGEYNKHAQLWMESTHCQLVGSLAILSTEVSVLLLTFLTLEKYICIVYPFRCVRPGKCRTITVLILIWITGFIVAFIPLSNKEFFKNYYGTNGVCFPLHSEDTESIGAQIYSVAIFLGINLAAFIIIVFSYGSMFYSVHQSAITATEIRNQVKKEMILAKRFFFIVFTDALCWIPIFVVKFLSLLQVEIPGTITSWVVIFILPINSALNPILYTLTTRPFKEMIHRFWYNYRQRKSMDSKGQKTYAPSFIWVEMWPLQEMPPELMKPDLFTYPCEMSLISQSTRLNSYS

[4] = molecular target: T1, Lutropin-choriogonadotropic hormone receptor (Homo sapiens, UniProt P22888); test: Antagonist activity at human luteinizing hormone receptor assessed as reduction in agonist-induced cAMP production preincubated for 20 mins followed by agonist solution addition after 60 mins by cell based TR-FRET assay; assay type: functional
T1 sequence (P22888 whole entry): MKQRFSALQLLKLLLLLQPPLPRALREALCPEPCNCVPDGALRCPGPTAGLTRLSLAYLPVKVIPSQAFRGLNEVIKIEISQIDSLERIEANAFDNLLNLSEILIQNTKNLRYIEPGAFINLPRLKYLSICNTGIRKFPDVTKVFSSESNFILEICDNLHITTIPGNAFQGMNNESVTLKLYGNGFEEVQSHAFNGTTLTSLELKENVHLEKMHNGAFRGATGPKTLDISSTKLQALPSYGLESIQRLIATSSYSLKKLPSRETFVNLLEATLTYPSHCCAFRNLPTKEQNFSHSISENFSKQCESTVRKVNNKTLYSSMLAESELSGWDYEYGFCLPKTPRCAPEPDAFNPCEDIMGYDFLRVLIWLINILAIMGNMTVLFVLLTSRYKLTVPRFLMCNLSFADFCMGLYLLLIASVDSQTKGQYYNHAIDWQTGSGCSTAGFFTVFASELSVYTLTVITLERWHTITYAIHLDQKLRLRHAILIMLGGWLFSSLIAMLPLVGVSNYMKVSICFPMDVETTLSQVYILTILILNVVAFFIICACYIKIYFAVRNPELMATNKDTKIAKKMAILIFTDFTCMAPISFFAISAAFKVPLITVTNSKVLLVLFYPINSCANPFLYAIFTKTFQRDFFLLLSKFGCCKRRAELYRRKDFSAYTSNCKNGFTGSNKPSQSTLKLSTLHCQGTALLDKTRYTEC

[5] = Maximum oral bioavailability in human liver microsomes based well stirred liver model at 1 uM measured after 2 to 60 mins in presence of glucose-6-phosphate by LC-MS/MS analysis; assay type: ADME, Microsome; details: read-out: Fmax
Thyrotropin receptor = Thyrotropin receptor (Homo sapiens, UniProt P16473); test: Antagonist activity at human thyroid stimulating hormone receptor expressed in rat HTC133 cells assessed as reduction in agonist-induced cAMP production preincubated for 20 mins followed by agonist solution addition and measured after 60 mins by cell based TR-FRET assay; assay type: functional
Chain of Thyrotropin receptor (P16473 whole entry): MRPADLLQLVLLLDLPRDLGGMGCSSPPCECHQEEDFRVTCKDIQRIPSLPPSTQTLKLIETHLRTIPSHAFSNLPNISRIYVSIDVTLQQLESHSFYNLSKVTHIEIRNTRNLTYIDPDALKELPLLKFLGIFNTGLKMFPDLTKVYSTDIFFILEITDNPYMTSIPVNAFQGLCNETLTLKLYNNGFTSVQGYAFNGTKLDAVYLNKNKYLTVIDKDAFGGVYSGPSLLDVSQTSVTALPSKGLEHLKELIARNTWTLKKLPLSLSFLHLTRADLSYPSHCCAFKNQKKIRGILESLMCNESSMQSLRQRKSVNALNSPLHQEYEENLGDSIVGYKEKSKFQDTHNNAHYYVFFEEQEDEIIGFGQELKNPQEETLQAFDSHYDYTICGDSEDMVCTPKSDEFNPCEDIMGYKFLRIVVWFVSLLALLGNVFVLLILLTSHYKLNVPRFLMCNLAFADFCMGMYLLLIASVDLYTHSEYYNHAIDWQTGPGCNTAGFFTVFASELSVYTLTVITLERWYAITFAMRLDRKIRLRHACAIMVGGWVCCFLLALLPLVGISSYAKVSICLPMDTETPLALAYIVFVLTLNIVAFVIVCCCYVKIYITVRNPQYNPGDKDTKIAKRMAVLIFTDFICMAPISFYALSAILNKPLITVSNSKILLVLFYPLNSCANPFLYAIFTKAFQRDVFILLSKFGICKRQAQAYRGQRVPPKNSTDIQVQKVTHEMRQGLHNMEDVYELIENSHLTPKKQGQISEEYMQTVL

[6] = molecular target: Lutropin-choriogonadotropic hormone receptor (Rattus norvegicus, UniProt P16235); test: Antagonist activity at rat luteinizing hormone receptor expressed in rat ovary granulosa GLHR15 cell suspension assessed as reduction in agonist-induced cAMP production preincubated for 30 mins followed by agonist solution addition after 30 mins by cell based TR-FRET assay; assay type: functional
Chain of Lutropin-choriogonadotropic hormone receptor (Rattus norvegicus, UniProt P16235) (P16235 whole entry): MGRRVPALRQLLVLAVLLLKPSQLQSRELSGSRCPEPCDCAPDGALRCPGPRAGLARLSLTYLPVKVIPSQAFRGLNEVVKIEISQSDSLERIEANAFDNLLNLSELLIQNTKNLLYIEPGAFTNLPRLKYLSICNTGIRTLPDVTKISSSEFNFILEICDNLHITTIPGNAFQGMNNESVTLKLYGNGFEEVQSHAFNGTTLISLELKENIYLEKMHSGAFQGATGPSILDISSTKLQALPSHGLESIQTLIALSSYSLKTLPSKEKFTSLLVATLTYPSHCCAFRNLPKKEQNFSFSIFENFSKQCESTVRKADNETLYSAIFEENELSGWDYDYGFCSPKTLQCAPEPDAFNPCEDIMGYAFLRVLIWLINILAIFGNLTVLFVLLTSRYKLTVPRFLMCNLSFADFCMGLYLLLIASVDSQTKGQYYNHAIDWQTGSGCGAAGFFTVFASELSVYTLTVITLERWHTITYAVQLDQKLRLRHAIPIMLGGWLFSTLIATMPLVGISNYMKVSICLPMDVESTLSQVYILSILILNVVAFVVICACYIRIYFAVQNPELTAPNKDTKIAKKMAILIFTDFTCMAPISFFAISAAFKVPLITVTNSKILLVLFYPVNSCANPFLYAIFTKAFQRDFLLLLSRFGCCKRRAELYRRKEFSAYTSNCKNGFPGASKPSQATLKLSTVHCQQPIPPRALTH

[7] = Lipophilicity, logD of the compound at pH 7.5 by reversed-phase HPLC; assay type: physicochemical; details: buffer
[8] = molecular target: T2, Follicle-stimulating hormone receptor (Homo sapiens, UniProt P23945); test: Antagonist activity at human follicle stimulating hormone receptor assessed as reduction in agonist-induced cAMP production preincubated for 20 mins followed by agonist solution addition and measured after 120 mins by cell based TR-FRET assay; assay type: functional
T2 sequence (P23945 whole entry): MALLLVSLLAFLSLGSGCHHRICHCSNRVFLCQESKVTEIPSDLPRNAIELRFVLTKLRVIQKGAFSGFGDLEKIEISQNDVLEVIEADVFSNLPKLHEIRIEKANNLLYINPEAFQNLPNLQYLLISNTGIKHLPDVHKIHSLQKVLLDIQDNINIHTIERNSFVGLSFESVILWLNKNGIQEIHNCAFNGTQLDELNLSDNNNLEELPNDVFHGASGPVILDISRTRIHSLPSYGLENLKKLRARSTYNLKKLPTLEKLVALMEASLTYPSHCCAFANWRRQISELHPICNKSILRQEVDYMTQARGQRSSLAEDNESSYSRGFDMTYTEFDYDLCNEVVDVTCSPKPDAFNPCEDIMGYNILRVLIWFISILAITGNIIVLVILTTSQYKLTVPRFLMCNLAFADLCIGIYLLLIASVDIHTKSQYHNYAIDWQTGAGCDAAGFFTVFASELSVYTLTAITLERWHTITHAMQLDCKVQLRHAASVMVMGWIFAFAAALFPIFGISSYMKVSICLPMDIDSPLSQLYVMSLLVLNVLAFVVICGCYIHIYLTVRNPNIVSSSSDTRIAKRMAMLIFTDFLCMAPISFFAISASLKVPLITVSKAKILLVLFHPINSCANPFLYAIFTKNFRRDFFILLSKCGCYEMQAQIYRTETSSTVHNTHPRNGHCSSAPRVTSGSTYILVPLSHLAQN

[9] = molecular target: T1, Lutropin-choriogonadotropic hormone receptor; test: Agonist activity at human luteinizing hormone receptor incubated for 60 mins by cell based TR-FRET assay; details: human, 1 h

Row | SMILES | CLhep predicted at 1 µM [1] | IC50 [4] | Fh at 1 µM [5] | chromatographic logD [7] | also measured
1 | COc1ccc(C2c3ccsc3CCN2C(=O)Nc2cc(Cl)cc(Cl)c2)cc1 (racemic) | 21.7 mL/min/kg | 0.378 µM | 3% | 5 | IC50 [2]: > 30 µM; inhibition [3]: inactive; IC50 (Thyrotropin receptor): > 30 µM; IC50 [6]: 0.212 µM; IC50 [8]: > 16.5 µM; Activity [9]: Not Active
2 | COc1ccc(C2c3ccsc3CCN2C(=O)Nc2cc(OC)cc(OC)c2)cc1 (racemic) | 21.7 mL/min/kg | 0.207 µM | 3% | 3.6 | 
3 | Cc1ccc(C2c3ccsc3CCN2C(=O)Nc2cc(Cl)cc(Cl)c2)cc1 (racemic) | 20 mL/min/kg | 2.61 µM | 8% | 5.5 | 
4 | O=C(Nc1cc(Cl)cc(Cl)c1)N1CCc2sccc2C1c1ccc(F)c(F)c1 (racemic) | 13.3 mL/min/kg | 1.85 µM | 40% |  | 
5 | O=C(Nc1ccc(Oc2ccc(F)cc2)cc1)N1CCc2sccc2C1c1ccc(Cl)cc1 (racemic) | 10 mL/min/kg | 0.127 µM | 56% | 5.3 | 
6 | COc1ccc([C@@H]2c3ccsc3CCN2C(=O)Nc2cc(Cl)cc(Cl)c2)cc1 |  | 6.79 µM |  |  | IC50 [2]: > 30 µM; IC50 (Thyrotropin receptor): > 30 µM; IC50 [6]: 4.89 µM; IC50 [8]: > 16.5 µM
7 | O=C(Nc1cc(Cl)cc(Cl)c1)N1CCc2sccc2C1c1ccc(C(F)(F)F)cc1 (racemic) | 11.7 mL/min/kg | 3.65 µM | 51% |  | 
8 | O=C(Nc1cc(Cl)cc(Cl)c1)N1CCc2sccc2C1c1ccccn1 (racemic) |  | > 16.5 µM |  |  | 
9 | O=C(Nc1cc(Cl)cc(Cl)c1)N1CCc2sccc2C1c1ccc(Cl)cc1 (racemic) | 11.7 mL/min/kg | 0.486 µM | 48% |  | 
10 | COc1ccc(C2c3ccsc3CCN2C(=S)Nc2cc(OC)cc(OC)c2)cc1 (racemic) |  | 3.32 µM |  | 3.7 | 
11 | COc1ccc(C2c3ccsc3CCN2C(=O)Nc2ccc(F)c(N3CCS(=O)(=O)CC3)c2)cc1 (racemic) |  | > 16.5 µM |  | 3.1 | 
12 | COc1ccc(C2c3ccsc3CCN2C(=O)Nc2cc(C)cc(C)c2)cc1 (racemic) |  | 0.58 µM |  | 4.1 | 
13 | NC(=O)c1ccc(C2c3ccsc3CCN2C(=O)Nc2cc(Cl)cc(Cl)c2)cc1 (racemic) |  | > 16.5 µM |  | 3.7 | 
14 | COc1ccc(C2c3ccsc3CCN2C(=O)Nc2cccc(Cl)c2)cc1 (racemic) | 20 mL/min/kg | 0.275 µM | 7% | 4.2 | 
15 | O=C(Nc1cccc(Oc2ccccc2)c1)N1CCc2sccc2C1c1ccc(Cl)cc1 (racemic) |  | 0.332 µM |  | 5.4 | 
16 | O=C(Nc1cc(Cl)cc(Cl)c1)N1CCc2sccc2C1c1cccnc1 (racemic) | 20 mL/min/kg | 7.47 µM | 11% | 4.2 | 
17 | COc1ccc(C2c3ccsc3CCN2C(=O)Cc2cc(C)cc(C)c2)cc1 (racemic) |  | > 16 µM |  | 4.8 | 

Row | SMILES | CLhep predicted at 1 µM [1] | IC50 [4] | Fh at 1 µM [5] | chromatographic logD [7] | also measured
18 | COc1ccc(C2c3ccsc3CCN2C(=O)Nc2ccc(Cl)cc2)cc1 (racemic) | 18.3 mL/min/kg | 0.107 µM | 18% | 3.9 | 
19 | O=C(Nc1cc(Cl)cc(Cl)c1)N1CCc2sccc2C1c1ccncc1 (racemic) |  | 5.18 µM |  | 4.2 | 
20 | O=C(Nc1ccc(Oc2ccc(F)cc2)nc1)N1CCc2ncccc2[C@@H]1c1ccc(F)cc1 | 3.33 mL/min/kg | 0.312 µM | 83% | 3.2 | 
21 | Cc1ccccc1C1c2ccsc2CCN1C(=O)Nc1cc(Cl)cc(Cl)c1 (racemic) |  | > 16.5 µM |  |  | 
22 | O=C(Nc1ccc(Oc2ccc(F)cc2)cc1)N1CCc2ncccc2[C@@H]1c1ccc(F)cc1 | 5 mL/min/kg | 0.102 µM | 75% | 3.9 | 
23 | O=C(Nc1cc(Cl)cc(Cl)c1)N1CCc2sccc2C1c1ccccc1F (racemic) | 18.3 mL/min/kg | 3.24 µM | 17% | 4.8 | 
24 | O=C(Nc1cc(Cl)cc(Cl)c1)N1CCc2sccc2C1c1cccc(F)c1 (racemic) |  | 3.13 µM |  | 5.1 | 
25 | O=C(Nc1ccc(F)c(Cl)c1)N1CCc2sccc2C1c1ccc(Cl)cc1 (racemic) |  | 0.174 µM |  | 5.1 | 
26 | COc1cc(NC(=O)N2CCc3sccc3[C@@H]2c2ccccc2)cc(OC)c1 |  | 0.193 µM |  |  | 
27 | COc1ccc([C@H]2c3ccsc3CCN2C(=O)Nc2cc(Cl)cc(Cl)c2)cc1 |  | 0.403 µM |  |  | IC50 [2]: > 30 µM; IC50 (Thyrotropin receptor): > 30 µM; IC50 [6]: 0.412 µM; IC50 [8]: > 16.5 µM
28 | O=C(Nc1cc(Cl)cc(Cl)c1)N1CCc2sccc2C1c1ccc(=O)[nH]c1 (racemic) |  | 2.31 µM |  | 3.7 | 
29 | COc1ccc(C2c3ccsc3CCN2C(=O)Nc2ccc(F)c(C(N)=O)c2)cc1 (racemic) |  | 1.68 µM |  | 2.8 | 
30 | O=C(Nc1ccc(F)c(OC(F)(F)F)c1)N1CCc2sccc2C1c1ccc(Cl)cc1 (racemic) | 13.3 mL/min/kg | 0.081 µM | 42% | 5.2 | 
31 | CC(C)c1ccc(C2c3ccsc3CCN2C(=O)Nc2cc(Cl)cc(Cl)c2)cc1 (racemic) |  | > 16.5 µM |  |  | 
32 | O=C(Nc1ccccc1)N1CCc2sccc2C1c1ccc(Cl)cc1 (racemic) | 16.7 mL/min/kg | 0.095 µM | 26% | 4 | 
33 | O=C(Nc1cc(Cl)cc(Cl)c1)N1CCc2sccc2C1c1ccccc1 (racemic) |  | 1.62 µM |  |  | 
